The text below walks through data of PubChem BioAssay AID652229 (The Scripps Research Institute Molecular Screening Center, 2013).

This test concerns the target Serine/threonine-protein phosphatase 5 (Homo sapiens) (UniProt P53041). The test can be described thus: PP5 phosphatase inhibition selectivity check, late-stage follow-up, selectivity assay for PP1 inhibitor project, biochemical, radiolabel, 33P-phosphohistone substrate, powder samples (AID 652229). As to conditions: purified PP5c, 33P-phosphohistone dephosphorylation, scintillation; at 50 µM; active compounds read high.

Active and inactive are the calls of the source.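 How the source made its calls: active means phosphatase PP5 activity blocked by at least 30% at 50 µM; inactive means the rest.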

Serine/threonine-protein phosphatase 5 (Homo sapiens), sequence (P53041 whole entry, looked up): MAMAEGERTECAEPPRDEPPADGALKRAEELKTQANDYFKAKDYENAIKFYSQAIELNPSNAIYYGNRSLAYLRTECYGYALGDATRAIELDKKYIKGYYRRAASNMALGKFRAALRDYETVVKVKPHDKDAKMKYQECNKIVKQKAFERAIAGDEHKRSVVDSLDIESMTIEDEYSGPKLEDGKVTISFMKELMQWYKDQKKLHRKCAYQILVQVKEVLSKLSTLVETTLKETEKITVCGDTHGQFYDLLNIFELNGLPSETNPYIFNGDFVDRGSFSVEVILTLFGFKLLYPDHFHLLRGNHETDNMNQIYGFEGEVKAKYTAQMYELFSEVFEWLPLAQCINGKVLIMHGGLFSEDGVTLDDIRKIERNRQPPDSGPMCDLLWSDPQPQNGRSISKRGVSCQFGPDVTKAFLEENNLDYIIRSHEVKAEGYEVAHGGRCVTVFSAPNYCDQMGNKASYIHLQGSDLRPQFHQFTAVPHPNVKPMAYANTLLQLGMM

With `Oc1c(C(c2ccccn2)N2CCC(Cc3ccccc3)CC2)cc(Cl)c2cccnc12` (configuration not stated), the inhibition was 4.23% (inactive).

As to `Oc1c(C(c2ccccn2)N2CCNCC2)cc(Cl)c2cccnc12` (configuration not stated), the inhibition was 6.84% (inactive).

Consider `Oc1c(C(c2ccccn2)N2CCN(c3ccccc3F)CC2)cc(Cl)c2cccnc12` (configuration not stated), for which the inhibition is -0.6% (inactive).

As for `CCN1CCN(C(c2ccccn2)c2cc(Cl)c3cccnc3c2O)CC1` (configuration not stated), the inhibition is 3.21% (inactive).

`CN1CCN(C(c2ccccn2)c2cc(Cl)c3cccnc3c2O)CC1` (configuration not stated): the inhibition was 3.05% (inactive).

Consider `CC1CCN(C(c2ccccn2)c2cc(Cl)c3cccnc3c2O)CC1` (configuration not stated), for which the inhibition was 6.08% (inactive).

Regarding `CC(C)(C)OC(=O)N1CCN(C(c2ccccn2)c2cc(Cl)c3cccnc3c2O)CC1` (configuration not stated), the inhibition was 0.25% (inactive).
